System: Female Sprague-Dawley rats
Conditions: for S-100b level relative to control animals / GFAP level relative to control animals / UCH-L1 level relative to control animals: rats, biofluids, 30, 60, 90, 120 min after dosing
Procedure: Acute oral In vivo drug candidate screening for neurotoxicity. […] A total of four to eight animals of are used for each dose level investigated.
At 30, 60, 90, and 120 minutes following dosing, the rats are sacrificed by decapitation and blood is obtained by cardiac puncture. The levels of biofluids S-100β, UCH-L1, and GFAP are analyzed by sandwich ELISA or western blot by using biomarker specific antibodies.

SMILES | CSF concentration of GFAP relative to control animals (rat, in vivo) | CSF concentration of UCH-L1 relative to control animals (rat, in vivo) | S-100b level relative to control animals | GFAP level relative to control animals | UCH-L1 level relative to control animals
CN[C@@H](C)Cc1ccccc1 [methamphetamine] | increase | increase | Modest increase | – | –
CN1CC=C(c2ccccc2)CC1 [MPTP] | – | – | increase | increase | increase
C=C(C)[C@H]1CN[C@H](C(=O)O)[C@H]1CC(=O)O [kainic acid] | – | – | increase | increase | increase
N.N.[Cl][Pt][Cl] [Cisplatin, cisplatin] | – | – | increase | increase | increase

Reference: patent US20120202231A1, “SYNERGISTIC BIOMARKER ASSAY OF NEUROLOGICAL CONDITION USING S-100B” (priority 2009, published 2012)
